This is an account of results in US9018176B2, “Inducers of hematopoiesis and fetal globin production for treatment of cytopenias and hemoglobin disorders” (priority 2010, dated 2015).

The test system of one data set is CB BFU-E cells. As to the kind of experiment: CB BFU-E cell proliferation (cells/colony). To be noted: FIG. 8. The protocol:
Fetal globin-inducing activity in human erythroid progenitors was assessed. Human erythroid progenitors were cultured from peripheral blood samples, exposed to the test compounds at varying concentrations and for varying durations and analyzed for globin chain mRNA ratios. Erythroid progenitors were cultured from cord blood CD34+ cells. Briefly, CD34+ cells in the human cord blood were separated using a Ficoll-paque density gradient. CD34+ cells were cultured in H4230 medium containing 2 mM L-glutamine, 1% Methylcellulose in Iscove's Medium, 30% Fetal Bovine Serum, 1% Bovine Serum Albumin and 10^-4 M β-mercaptoethanol. Methylcellulose H4230 medium was supplemented with EPO (0.5 U/ml) and IL-3 (20 ng/ml) to support BFU-e growth. Cells were cultured in […] mini-dishes and incubated in a humidified atmosphere containing 5% CO2, at 37° C. Different concentrations of the test compounds were added at the time the cultures were established. Each compound was tested in three different cultures. BFU-e colonies grown in mini-dishes were counted on day 14 and harvested for mRNA analysis.

The subject of data set [1] is γ-globin mRNA. As to the kind of experiment: γ-globin mRNA in cultured primary human erythroid progenitors (BFU-e), real-time PCR. Format: cell-based. On the procedure:
Erythroid progenitors were cultured from cord blood CD34+ cells. […] Each compound was tested in three different cultures. […] On day 14, RNA was extracted from cultured erythroid cells, and relative quantification PCR was performed. Briefly, cDNA was generated from equal amounts of total RNA extracted using The PerfectPure RNA Purification Kit (5 Prime Inc Gaithersburg, Md.). Real-time PCR was performed using an ABI 7500 Real-Time PCR system (Applied Biosystems, Foster City, Calif.). Levels of globin mRNA were calculated by the ΔΔCt method. […] GAPDH levels were used for standardization. Western blotting Nuclear extract of K562 cells and 14-day-old BFU-e were analyzed by electrophoresis using 5-24% gradient SDS-polyacrylamide mini-gels (BIORAD Laboratories. Hercules Calif.). Proteins in the gels were transferred to Immobilon-P membranes. Blots were then incubated with BCL11A polyclonal (Novus Biologicals, Littleton Co) or mouse monoclonal (Santa Cruz Biotechnology, Santa Cruz Calif.) antibodies, after washing blots were incubated with anti-rabbit IgG-horseradish peroxidase secondary antibody (ECL, Little Chalfont Buckinghamshire UK). BCL11A bands were detected on the X-ray film using Western Lightning Reagents (Perking Elmer Inc, Waltham, Mass.).
For orientation: In qPCR the cycle at which signal appears reflects the starting amount.

In data set [2] the test system is γ-globin mRNA. The data set can be described thus: γ-globin mRNA gene expression in K562 cells. Format: cell-based.
Data set [3] deals with γ-globin mRNA. The data set can be described thus: γ-globin mRNA in cultured primary human erythroid progenitors (BFU-e), real-time PCR. Type of data set: cell-based. Particulars: Resveratrol 0.2 uM.
A further data set has as its system γ-globin gene promoter. The data set can be described thus: Dual luciferase reporter assay (μLCRβprRlucAγprFluc cassette) in GM979 cells. Type of data set: cell-based. Particulars: Resveratrol at 10 μM, MS-275 at 5 μM. An excerpt:
Cell-based screen for γ-globin inducing compounds in GM979 cells (Skarpidi, et al. Blood 2000; 96:321-326). Mini-gene construct integrated into GM979 cell genome. The readout is Firefly/Renilla luciferase ratio, and is designed to identify only strong inducers of the γ-globin promoter, and specificity for the γ- vs. the […]γ-globin gene. This second assay confirmed 12/15 candidates.
This assay is […], and consists of a dual-luciferase reporter construct containing the LCR and the […] luciferase and the Aγ-globin promoter linked to firefly luciferase (μLCRβprRlucAγprFluc cassette), stably-transfected into GM979 cells. The orientation of the promoters and μLCR allowed detection only of strong, specific inducers of the γ-globin gene promoter. This assay is also been predictive of in vivo HbF-inducing activity.
The γ-globin-specificity of hits was determined in a secondary assay employing a stably-transfected dual-luciferase reporter construct containing the LCR and the β-globin promoter linked to renilla luciferase and the Aγ-globin promoter linked to firefly luciferase (μLCRβprRlucAγprFluc cassette) (FIG. 2B).
(In general: In a reporter assay the amount or activity of a reporter protein is the signal.)

For another data set, the system named is histone deacetylases. As to the kind of experiment: Histone deacetylase inhibition.
[4] abbreviates: Hemoglobin disorder progenitors.

As to `Oc1ccc(C=Cc2cc(O)cc(O)c2)cc1` [Resveratrol, resveratrol], the “number of blood cells per colony” value in the data set with CB BFU-E cells is “increase the number of blood cells per colony”. The “cytotoxicity / inhibition of erythroid cell proliferation” value in the data set on CB BFU-E cells (Desloratadine 1 μM-10 μM, Resveratrol 0.05 μM-5 μM, Benserazide 0.1 μM-10 μM) is “non-cytotoxic”. Also, the “% induction of γ-globin mRNA gene expression” value in the data set with γ-globin mRNA [1] (FIG. 4C, HFU-E (burst-forming units-erythroid) cells, Resveratrol 30 μM, desloratadine 50 μM, NSC 50 μM, Benserazine 5 μM) is listed as “most significant % increase”; in the data set with γ-globin mRNA [2] (FIGS. 4A and 4B, K562 cells, Resveratrol 30 μM, desloratadine 50 μM, NSC 50 μM, Benserazine 5 μM) it was “most significant % increase”. For the same molecule, the “γ-globin mRNA induction” value in the data set on γ-globin mRNA [1] (cultured primary human erythroid progenitors, concentrations pharmacologically achievable in humans) is “up to 3 fold”. Also, the “concentrations that induce fetal globin (HbF) mRNA” value with γ-globin mRNA [1] (primary erythroid progenitors in vitro) stood at 0.05 µM. Also, the “concentration giving the most γ-globin mRNA expression” value in the data set on γ-globin mRNA [2] (FIG. 5, K562 cells, tested Desloratadine 10 μM-100 μM, Resveratrol 5 μM-30 μM, NSC 1 μM-50 μM) worked out at 30 µM. Also, the “fetal globin mRNA, Mean” value in the data set with γ-globin mRNA [3] (Cord Blood progenitors) is 217 % of control; in the data set with γ-globin mRNA [3] (setting [4]) it was 245 % of control; in the data set on γ-globin mRNA [3] (Normal progenitors) it was 122 % of control. Moreover, the results for the “responses (cultures with induced fetal globin mRNA)” value with γ-globin mRNA [3] (Cord Blood progenitors), with γ-globin mRNA [3] (setting [4]) and in the data set with γ-globin mRNA [3] (Normal progenitors) were 5/5, 1/2 and 1/2, respectively. Further, the “activity compared with sodium Butyrate” value in the data set with γ-globin gene promoter (Ambroxol at 1 μM, Desloratadine at 1 μM, Benserazide at 0.03 μM (or a range of 30 nM-5 μM), NSC-95397 at 1 μM, versus sodium Butyrate at 2000 μM) is “significantly more active”. The “most active at inducing γ-globin mRNA expression” value with γ-globin gene promoter (Benserazide at 0.03 μM) is recorded as “most active”. Besides, the “concentration that inhibits histone deacetylases” value in the data set on histone deacetylases came out at 0.05 µM.
